Test results taken from patent US6080771A, “DC107 derivatives” (Kyowa Hakko Kogyo Co., Ltd., priority 1996, dated 2000).
≈ marks a conversion by molar mass, not a printed value. Where two headings read alike, the source gives them in different places.

Key:
[1] = system: Bacillus substilis NO. 10707; test: Antimicrobial activity, agar dilution method (MIC), BS; type: cell-based
Description: | BS: Bacillus substilis NO. 10707

[2] = system: Sarcoma 180 mouse solid tumor; test: Antitumor activity against Sarcoma 180 mouse solid tumor; type: in vivo, male ddY mice; details: Sarcoma-180, iv, 168 h, single i.v., tumor volume on day 7 from transplant, read-out: T/C (tumor volume ratio treated/control)
Experimental: To a ddY mouse were intraperitoneally transplanted 5×10^6 sarcoma 180 cells. On the seventh day from the transplant, the cells were collected from the ascites, washed once with sterilized physiological saline, and then diluted with sterilized physiological saline to prepare a cell suspension having a concentration of 5×10^7 cells/mL. This suspension was transplanted in an amount of 0.01 mL to a subcutaneous part of the right axilla of each of male ddY mice each weighing 20±1 g.
A test compound was dissolved in physiological saline containing polyoxyethylene sorbitan monolaurate. At 24 hours after the tumor transplant, 0.2 mL of the solution was intravenously administered to the tail of each of a group of five mice.

[3] = system: Klebisiella pneumoniae ATCC 10031; test: Antimicrobial activity, agar dilution method (MIC), KP; type: cell-based
Description: | KP: Klebisiella pneumoniae ATCC 10031

Escherichia coli ATCC 26 = test: Antimicrobial activity, agar dilution method (MIC), EC; type: cell-based
Description: | EC: Escherichia coli ATCC 26

[4] = system: Staphylococcus aureus ATCC 6538P; test: Antimicrobial activity, agar dilution method (MIC), SA; type: cell-based; details: ATCC6538P, pH 7, read-out: MIC, SA
Description: | SA: Staphylococcus aureus ATCC 6538P

[5] = system: Enterococcus hirae ATCC 10541; test: Antimicrobial activity, agar dilution method (MIC), EH; details: pH 7
Experimental: Antimicrobial activity was determined by the agar dilution method using a culture medium (pH 7) prepared by dissolving 3 g of Bacto-Tryptone (manufactured by Difco, Co.), 3 g of meat extract, 1 g of yeast extract, 1 g of glucose, and 16 g of agar in 1 l of water.
EH: Enterococcus hirae ATCC 10541

HeLa S3 cells = test: HeLa S3 cell growth inhibition test (Neutral Red); type: cell-based; details: Homo sapiens, read-out: HeLa S3 Cell Growth Inhibition Activity, IC50
Experimental: In each well of a 96-well microtiter plate was placed 0.1 mL of HeLa S3 cells having a concentration of 8×10^3 cells/mL and prepared in an MEM culture medium containing 10% fetal bovine serum and 2 mM glutamine. After the cells were incubated overnight at 37° C. in a carbon dioxide incubator, a test compound suitably diluted with a medium was added to the wells in an amount of 0.05 mL for each well. The cells were incubated at 37° C. for 72 hours in a carbon dioxide incubator. After the culture supernatant was removed, 0.1 mL of a culture medium containing 0.02% Neutral Red was added to each well. The cells were then incubated at 37° C. for 1 hour in a carbon dioxide incubator to dye the cells. After the culture supernatant was removed, each residue was rinsed once with physiological saline and the pigment was extracted with 0.001N hydrochloric acid/30% ethanol. The absorbance at 550 nm of each extract was measured with a microplate reader. The drug concentration required for the 50% inhibition of cell growth, which is referred to as IC50, was calculated by comparing the absorbance for untreated cells with those for cells treated with the drug in known concentrations.

[6] = NO.10707, agar dilution, pH 7, read-out: MIC, BS
[7] = agar dilution, pH 7, read-out: MIC, KP
[8] = ATCC26, pH 7, read-out: MIC, EC
[9] = ATCC26, agar dilution, pH 7, read-out: MIC, EC

| SMILES | MIC [1, 6] | response vs control in vivo at 8 mg/kg [2] | MIC [3, 7] | MIC ([4]; agar dilution) | MIC, EH [5] | other results |
| --- | --- | --- | --- | --- | --- | --- |
| COCCOCC(=O)OCCOCCOCC(=O)OC1/C=C(\C)CCC2(CC(=O)NC(C)c3nc(cs3)/C=C\C=C\C1=O)[S+]([O-])SC(=O)C2(C)O (stereo not shown) [Compound 31] | 0.057 µg/mL (≈ 0.0737 µM) | 12% | 0.057 µg/mL (≈ 0.0737 µM) | 0.11 µg/mL (≈ 0.142 µM) | 0.11 µg/mL (≈ 0.142 µM) | MIC (Escherichia coli ATCC 26; [8]): 3.65 µg/mL (≈ 4.72 µM) |
| C/C1=C\C(OC(=O)COCCCO)C(=O)/C=C/C=C\c2csc(n2)C(C)NC(=O)CC2(CC1)[S+]([O-])SC(=O)C2(C)O (stereo not shown) [Compound 33] | 0.065 µg/mL (≈ 0.104 µM) | – | 0.13 µg/mL (≈ 0.207 µM) | 0.13 µg/mL (≈ 0.207 µM) | 0.065 µg/mL (≈ 0.104 µM) | response vs control in vivo at 2 mg/kg [2]: 36%; MIC (Escherichia coli ATCC 26; [9]): 1 µg/mL (≈ 1.6 µM) |
| C/C1=C\C(OC(=O)COCCCCO)C(=O)/C=C/C=C\c2csc(n2)C(C)NC(=O)CC2(CC1)[S+]([O-])SC(=O)C2(C)O (stereo not shown) [Compound 35] | 0.2 µg/mL (≈ 0.312 µM) | – | 0.098 µg/mL (≈ 0.153 µM) | 0.098 µg/mL (≈ 0.153 µM) | 0.098 µg/mL (≈ 0.153 µM) | response vs control in vivo at 4 mg/kg [2]: 22%; MIC (Escherichia coli ATCC 26; [8]): 1.6 µg/mL (≈ 2.5 µM) |
| C/C1=C\C(OC(=O)COCCOCCOCCOCCO)C(=O)/C=C/C=C\c2csc(n2)C(C)N2C(=O)CC(C(C)(O)C(=O)SCc3oc(=O)oc3C)(CC1)[S+]2[O-] (stereo not shown) [Compound 38] | – | 43% | – | – | 1.8 µg/mL (≈ 2.1 µM) | MIC ([1]; NO.10707, pH 7, read-out: MIC, BS): 1.8 µg/mL (≈ 2.1 µM); MIC ([3]; pH 7, read-out: MIC, KP): 1.8 µg/mL (≈ 2.1 µM); MIC [4]: 3.7 µg/mL (≈ 4.32 µM) |
| COCCOCCOCC(=O)OC1/C=C(\C)CCC2(C(C)(O)C(=O)SCOC(=O)OCCN3CCCC3=O)CC(=O)N(C(C)c3nc(cs3)/C=C\C=C\C1=O)[S+]2[O-] (stereo not shown) [Compound 44] | – | – | – | – | – | response vs control in vivo at 2 mg/kg [2]: 43% |
| COCCOCCOCC(=O)OC1/C=C(\C)CCC2(C(C)(O)C(=O)SCOC(=O)OCCOCCOC)CC(=O)N(C(C)c3nc(cs3)/C=C\C=C\C1=O)[S+]2[O-] (stereo not shown) [Compound 45] | – | – | – | – | – | response vs control in vivo at 4 mg/kg [2]: 45% |
| COCCOCCOCC(=O)OC1/C=C(\C)CCC2(C(C)(O)C(=O)SCOC(=O)COCCOCCO)CC(=O)N(C(C)c3nc(cs3)/C=C\C=C\C1=O)[S+]2[O-] (stereo not shown) [Compound 47] | – | 40% | – | – | – | – |
| CC(=O)OCC1OC(OC2C=C(C)CCC3(CC(=O)NC(C)c4nc(cs4)C=CC=CC2=O)[S+]([O-])SC(=O)C3(C)O)C=CC1OC(C)=O (stereo not shown) [Compound 50] | 0.02 µg/mL (≈ 0.0277 µM) | – | 0.16 µg/mL (≈ 0.221 µM) | 0.02 µg/mL (≈ 0.0277 µM) | 0.020 µg/mL (≈ 0.0277 µM) | IC50 (HeLa S3 cells; HeLa S3, 72 hours, 37° C.): 3.5 nM; MIC (Escherichia coli ATCC 26; [9]): 0.16 µg/mL (≈ 0.221 µM) |
| CC(=O)OC[C@H]1OC(OC2/C=C(\C)CCC3(CC(=O)NC(C)c4nc(cs4)/C=C\C=C\C2=O)[S+]([O-])SC(=O)C3(C)O)C[C@@H](OC(C)=O)[C@@H]1OC(C)=O (stereo partly shown) [Compound 53] | 0.098 µg/mL (≈ 0.125 µM) | – | 1.6 µg/mL (≈ 2.04 µM) | 0.098 µg/mL (≈ 0.125 µM) | 0.20 µg/mL (≈ 0.255 µM) | IC50 (HeLa S3 cells; HeLa S3, 72 h): 16 nM; MIC (Escherichia coli ATCC 26; [8]): 25 µg/mL (≈ 31.9 µM) |
| CC(=O)O[C@@H]1C=CC(OC2/C=C(\C)CCC3(CC(=O)NC(C)c4nc(cs4)/C=C\C=C\C2=O)[S+]([O-])SC(=O)C3(C)O)O[C@H]1C (stereo partly shown) [Compound 57] | 0.033 µg/mL (≈ 0.0496 µM) | – | 0.26 µg/mL (≈ 0.391 µM) | 0.13 µg/mL (≈ 0.196 µM) | 0.13 µg/mL (≈ 0.196 µM) | IC50 (HeLa S3 cells; HeLa S3, 72 h): 16 nM; MIC (Escherichia coli ATCC 26; [8]): 0.52 µg/mL (≈ 0.782 µM) |
| CC(=O)O[C@H]1[C@H](C)OC(OC2/C=C(\C)CCC3(C(C)(O)C(=O)SCc4oc(=O)oc4C)CC(=O)N(C(C)c4nc(cs4)/C=C\C=C\C2=O)[S+]3[O-])C[C@@H]1OC(C)=O (stereo partly shown) [Compound 66] | – | – | – | – | – | response vs control in vivo at 4 mg/kg [2]: 47%; IC50 (HeLa S3 cells; HeLa S3, 72 hours, 37° C.): 6.1 nM |
| C/C1=C\C(OC2C=C[C@@H](O)[C@H](C)O2)C(=O)/C=C/C=C\c2csc(n2)C(C)N2C(=O)CC(C(C)(O)C(=O)SCc3oc(=O)oc3C)(CC1)[S+]2[O-] (stereo partly shown) [Compound 67] | – | 44% | – | – | – | – |
| CC(=O)O[C@@H]1C=CC(OC2/C=C(\C)CCC3(C(C)(O)C(=O)SCc4oc(=O)oc4C)CC(=O)N(C(C)c4nc(cs4)/C=C\C=C\C2=O)[S+]3[O-])O[C@H]1C (stereo partly shown) [Compound 68] | – | 50% | – | – | – | – |
| CC(=O)O[C@@H]1C=CC(OC2/C=C(\C)CCC3(C(C)(O)C(=O)SCc4oc(=O)oc4C)CC(=O)N(C(C)c4nc(cs4)/C=C\C=C\C2=O)[S+]3[O-])O[C@H]1C (stereo partly shown) [Compound 69] | – | – | – | – | – | IC50 (HeLa S3 cells; HeLa S3, 72 hours, 37° C.): 3.2 nM |
